# From paper PMC5059489, “Mechanistic evaluation and transcriptional signature of a glutathione S-transferase omega 1 inhibitor” (Nature Communications, 2016)
# “And” between values parts separate entries of the source, which are not always exact repeats. Identical values can stand only once.
# Columns and labels:
# HCT116p53+/+ cell = assay: MTT cell proliferation at single concentration; format: cell-based, human
# Method: Cell proliferation was assessed by a MTT assay. Cancer cells were seeded in 96-well microtitre plates and, after overnight attachment, treated with GSTO1 inhibitors. After 72 h, MTT solution (3 mg ml^−1; 20 μl) was added to each well and cells were incubated for 3 h at 37 °C. After incubation, media from each well was removed and the dark blue formazan crystals formed by live cells were dissolved in DMSO (150 μl per well). The absorbance intensity was measured at 570 nm on a microplate reader (Molecular Devices, Sunnyvale, CA, USA). Cell viability after 24 h treatment was assessed using ApoTox-Glo triplex assay (Promega) according to the manufacturer's protocol. At least three independent dose–response experiments with each concentration tested in triplicate were performed for each cell line.
# endogenous GSTO1 = molecular target: T1, endogenous GSTO1 (Homo sapiens, UniProt P78417); assay: In-gel fluorescence competitive CMFDA binding assay, endogenous GSTO1 in HCT116; settings: 10 µM; inhibition of CMFDA binding, HCT116
# T1 sequence (P78417 1-241): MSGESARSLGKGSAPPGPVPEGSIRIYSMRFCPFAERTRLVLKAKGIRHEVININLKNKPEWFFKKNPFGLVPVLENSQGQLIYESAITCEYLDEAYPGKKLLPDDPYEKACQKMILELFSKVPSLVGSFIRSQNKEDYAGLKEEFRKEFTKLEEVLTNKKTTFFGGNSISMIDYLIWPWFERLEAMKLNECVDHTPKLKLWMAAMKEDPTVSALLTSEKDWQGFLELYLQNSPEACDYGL
# From the text: (§1) Primary screening of GSTO inhibitors was based on competitive inhibition of CMFDA binding to endogenous GSTO. Briefly, HCT116^p53+/+ cells (4 × 10^4 per well) were coated in a 12-well plate. […] Cells were then washed with PBS and lysed using Cell Lytic M buffer (Sigma). […] Gels were immediately scanned on a Typhoon variable mode imager (Amersham Bioscience). Quantification of fluorescent band intensity was done using Image Quant 5.2 software.
# GSTO1 [1] = molecular target: T2, GSTO1 (Homo sapiens, UniProt P78417); assay: GSTO1 substrate assay (reduction of 4-NPG); settings: for IC50: read-out: GSTO substrate assay IC50, cluster screening tables
# T2 sequence (P78417 1-241): T1 sequence (P78417 1-241)
# Method: For activity screening, we adapted a GSTO1 substrate assay that relies on the quantification of the reduction of S-(4-nitrophenacyl)glutathione (4-NPG), a GSTO1-specific substrate[17], using recombinant human GSTO1 in a high-throughput screening format.
# Enzyme activity was measured by monitoring the reduction of 4-NPG to 4-nitroacetophenone by GSTO1.
# GSTO1 [2] = molecular target: T2, GSTO1; assay: In-gel fluorescence competitive CMFDA binding assay, recombinant GSTO1; settings: inhibition of CMFDA binding
# From the text: as §1
GSTO binding assay (% Inhibition at 10 µM) Endogenous (endogenous GSTO1) [%],GSTO substrate assay % Inhibition at 10 µM (GSTO1 [1]) [%],GSTO binding assay (% Inhibition at 10 µM) Recombinant (GSTO1 [2]) [%],IC50 (GSTO1 [1]) [nM],Structure (SMILES),% Inhibition of HCT116p53+/+ cell proliferation at 10 µM (HCT116p53+/+ cell)
48.4,78.4,29.4,–,Cn1ccnc1C(NC(=O)CCl)c1ccccc1 (stereo not shown) [C3-10],96.5% and 87.4%
31.8,92.5,81.5,–,O=C(CCl)Nc1cc([N+](=O)[O-])ccc1Nc1ccc(F)cc1 [C1-4],80.6%
52.8,78.6,53.2,1070,N#CCCN(C(=O)CCl)c1cccc(C(F)(F)F)c1 [C4-2],84.1% and 93.6%
-9.5,88.5,-4.1,–,O=C(CCl)Nc1cc(C(F)(F)F)ccc1N1CCCC1 [C1-17],94.8% and 91%
25.2,84.5,36.8,–,N#Cc1cnn(-c2ccccc2)c1NC(=O)CCl [C2-6],-17% and -9.7%
58.6,1.2,51.8,–,Cc1c(NC(=O)c2c(NC(=O)CCl)sc3c2CCCC3)c(=O)n(-c2ccccc2)n1C [C2-19],52.7% and 40.5%
39.3,12.5,56.5,–,CC(=O)c1cc2c(cc1NC(=O)CCl)OCO2 [C1-9],-1.2%
62.1,34.0,82.4,–,COc1ccc(-c2csc(NC(=O)CCl)n2)c(O)c1 [C2-24],22.9% and 19.2%
49.7,81.7,49.1,–,COc1cc(NC(=O)CCl)c(Cl)cc1C(=O)O [C1-10],19.7%
59.2,13.9,50.0,–,CCOC(=O)c1c(NC(=O)CCl)sc(Cl)c1-c1ccccc1 [C2-9],16.3%
31.8,85.1,14.7,–,CCOc1cc2c(cc1CNC(=O)CCl)OC(C)C2 (stereo not shown) [C3-5],64.1% and 63.6%
44.1,42.0,15.1,–,CC(C)C(NC(=O)CCl)c1cccs1 (stereo not shown) [C3-28],48.5% and 48.7%
45.0,54.8,-0.8,–,CCN1CCC(NC(=O)CCl)CC1 [C2-1],65.6% and 62.7%
41.1,47.4,50.5,–,Cc1sc2ncn(NC(=O)CCl)c(=O)c2c1C [C2-30],12.0%
58.2,-7.0,57.9,–,CCOC(=O)c1c(NC(=O)CCl)sc(C(=O)Nc2ccc(C)cc2C)c1C [C2-14],6.3%
56.8,89.1,45.2,–,NC(=O)CCN(Cc1ccccc1)C(=O)CCl [C4-14],70.3% and 75%
56.6,77.7,75.6,162,O=C(CCl)Nc1ccc(Oc2ccc(Br)cc2)cc1 [C1-7],29.6%

GSTO binding assay (% Inhibition at 10 µM) Endogenous (endogenous GSTO1) [%],GSTO substrate assay % Inhibition at 10 µM (GSTO1 [1]) [%],GSTO binding assay (% Inhibition at 10 µM) Recombinant (GSTO1 [2]) [%],IC50 (GSTO1 [1]) [nM],Structure (SMILES),% Inhibition of HCT116p53+/+ cell proliferation at 10 µM (HCT116p53+/+ cell)
69.2,83.7,54.9,4110,NC(=O)C1CN(C(=O)CCl)c2ccccc2O1 (stereo not shown) [C5-24],79.8% and 87.3%
75.7,93.8,62.3,293,N#CC(c1ccccc1)N1CCN(C(=O)CCl)CC1 (stereo not shown) [C5-8],82.6% and 87.3%
49.0,41.4,25.1,–,CC(=O)N1CCc2cc(NC(=O)CCl)ccc21 [C1-22],80.8% and 86%
9.7,83.2,22.0,–,CN(C)C(CNC(=O)CCl)c1ccccc1 (stereo not shown) [C3-12],5%
54.4,3.7,6.4,–,O=C(CCl)Nc1ccccc1N1CCCC1=O [C1-18],41.5% and 41.7%
51.3,0.5,35.8,–,Cc1ccc(C)c(-n2nc(C)cc2NC(=O)CCl)c1 [C2-4],81.4% and 84.4%
66.2,100.9,54.1,1220,O=C(CCl)Nc1ccc(Cl)cc1[N+](=O)[O-] [C1-2],7.4%
61.1,62.2,35.2,–,O=C(CCl)Nc1ccccc1C(=O)NCc1ccco1 [C1-13],14.3% and 6.6%
45.6,9.8,10.1,–,COc1cc(CCNC(=O)CCl)ccc1OC(F)F [C3-11],8.1% and 16.1%
65.7,61.5,38.3,–,CC1CCN(c2ccc(NC(=O)CCl)cc2)CC1 [C1-19],79.2% and 85.4%
-20.7,11.8,2.1,–,CCCCN(C(=O)CCl)c1c(N)n(CC(C)C)c(=O)[nH]c1=O [C4-19],67.3%
55.3,79.7,56.0,598,O=C(CCl)Nc1ccnn1Cc1cccc(Cl)c1 [C2-7],85.7% and 91%
41.3,25.9,48.1,–,CCOC(=O)c1c(NC(=O)CCl)sc(Cc2ccc3c(c2)OCO3)c1C [C2-13],38.1%
58.5,73.0,40.4,3800,O=C(CCl)N(CC(F)(F)F)c1ccc(Cl)cc1 [C4-1],76.2% and 81.4%
20.6,23.3,9.8,–,Cc1cccc(C(O)(C(=O)NN(C(=O)CCl)C2CCCCC2)c2cccc(C)c2)c1 [C4-21],50.6% and 54.9%
28.9,40.0,65.0,–,COc1ccc(C2=NN(C(=O)CCl)C(c3cccc(OC)c3OC)C2)cc1 (stereo not shown) [C5-21],78.2% and 83.6%
